Results from patent publication US8796244B2, “Imidazopyridine derivatives as inhibitors of receptor tyrosine kinases” (Astex Therapeutics Ltd, priority 2008, dated 2014).
Where a name gives a salt, the structure may show the parent alone. Read-outs that look alike come from different tables or passages of the source.

How the values were obtained:
[1] = test system: LP-1 cell line (FGF-1/Heparin induced pERK); assay: Cell-based pERK ELISA, LP-1 cells; details: Homo sapiens; for IC50: LP-1, read-out: LP-1 pERK ELISA (μM)
[2] = test system: parental wild-type Ba/F3 cells; assay: Ba/F3 (WT) cell proliferation assay (Alamar Blue); assay type: cell-based; details: Mus musculus
[3] = BaF3, read-out: BaF3 WT prolif, % inhibition
[4] = BaF3, 72 hours, Alamar Blue, read-out: BaF3 WT prolif
[5] = BaF3, 72 h, read-out: BaF3 WT prolif (μM)

Compound: NC1CCN(c2ccc(-c3ccn4c(-c5cccc(NC(=O)NCC(F)(F)F)c5)cnc4c3)nn2)CC1 [Example 75, 1-(3-{7-[6-(4-Amino-piperidin-1-yl)-pyridazin-3-yl]-imidazo[1,2-a]pyridin-3-yl}-phenyl)-3-(2,2,2-trifluoro-ethyl)-urea tris-trifluoroacetate]
- IC50 [1]: 0.63 µM
- inhibition at 10 µM [2, 3]: 32%

Compound: CN1CCC(Nc2ccc(-c3ccn4c(-c5cccc(NC(=O)NCC(F)(F)F)c5)cnc4c3)nn2)CC1 [Example 76, 1-(3-{7-[6-(1-Methyl-piperidin-4-ylamino)-pyridazin-3-yl]-imidazo[1,2-a]pyridin-3-yl}-phenyl)-3-(2,2,2-trifluoro-ethyl)-urea tri-hydrochloride]
- IC50 [1]: 0.51 µM
- inhibition at 10 µM [2, 3]: 26%

Compound: O=C(NCC(F)(F)F)Nc1cccc(-c2cnc3cc(-c4cccnc4)ccn23)c1 [Example 78, 1-[3-(7-Pyridin-3-yl-imidazo[1,2-a]pyridin-3-yl)-phenyl]-3-(2,2,2-trifluoro-ethyl)-urea]
- IC50 [1]: 0.017 µM
- IC50 [2, 4]: 0.15 µM

Compound: CN1CCN(c2ncc(-c3ccn4c(-c5cccc(NC(=O)NCC(F)(F)F)c5)cnc4c3)cn2)CC1 [Example 79, 1-(3-{7-[2-(4-Methyl-piperazin-1-yl)-pyrimidin-5-yl]-imidazo[1,2-a]pyridin-3-yl}-phenyl)-3-(2,2,2-trifluoro-ethyl)-urea bis-formate]
- IC50 [1]: 0.035 µM
- IC50 [2, 5]: 0.4 µM

Compound: COCCNc1ccc(-c2ccn3c(-c4cccc(NC(=O)NCC(F)(F)F)c4)cnc3c2)nn1 [Example 80, 1-(3-{7-[6-(2-Methoxy-ethylamino)-pyridazin-3-yl]-imidazo[1,2-a]pyridin-3-yl}-phenyl)-3-(2,2,2-trifluoro-ethyl)-urea hydrochloride]
- IC50 [1]: 0.039 µM
- inhibition at 10 µM [2, 3]: 0%

Compound: CC(C)(CO)Nc1ccc(-c2ccn3c(-c4cccc(NC(=O)NCC(F)(F)F)c4)cnc3c2)nn1 [Example 81, 1-(3-{7-[6-(2-Hydroxy-1,1-dimethyl-ethylamino)-pyrid-azin-3-yl]-1,7-dihydro-imidazo[1,2-a]pyridin-3-yl}-phenyl)-3-(2,2,2-trifluoro-ethyl)-urea hydrochloride]
- IC50 [1]: 0.028 µM
- inhibition at 3 µM [2, 3]: 20%

Compound: Nc1cnc(-c2ccn3c(-c4cccc(NC(=O)NCC(F)(F)F)c4)cnc3c2)cn1 [Example 85, 1-{3-[7-(5-Amino-pyrazin-2-yl)-imidazo[1,2-a]pyridin-3-yl]-phenyl}-3-(2,2,2-trifluoro-ethyl)-urea formate]
- IC50 [1]: 0.065 µM
- IC50 [2, 5]: 0.17 µM

Compound: Cn1ccc(C#Cc2ccn3c(-c4cccc(NC(=O)NCC(F)(F)F)c4)cnc3c2)n1 [Example 86, 1-{3-[7-(1-Methyl-1H-pyrazol-3-ylethynyl)-imidazo[1,2-a]pyridin-3-yl]-phenyl}-3-(2,2,2-trifluoro-ethyl)-urea formate]
- IC50 [1]: 0.04 µM
- IC50 [2, 5]: 1.9 µM

Compound: O=C(NCC(F)(F)F)Nc1cccc(-c2cnc3cc(-c4cnc(N5CC(F)(F)C5)nc4)ccn23)c1 [Example 87, 1-(3-{7-[2-(3,3-Difluoro-azetidin-1-yl)-pyrimidin-5-yl]-imidazo[1,2-a]pyridin-3-yl}-phenyl)-3-(2,2,2-trifluoro-ethyl)-urea bis-trifluoroacetate]
- IC50 [1]: 0.072 µM
- IC50 [2, 5]: 0.41 µM

Compound: O=C(NCC(F)(F)F)Nc1cccc(-c2cnc3cc(-c4ccnnc4)ccn23)c1 [Example 88, 1-[3-(7-Pyridazin-4-yl-imidazo[1,2-a]pyridin-3-yl)-phenyl]-3-(2,2,2-trifluoro-ethyl)-urea formate]
- inhibition at 10 µM ([1]; LP-1, read-out: LP-1 pERK ELISA, % inhibition): 16%
- inhibition at 10 µM [2, 3]: 0%

Compound: COc1cnc(-c2ccn3c(-c4cccc(NC(=O)NCC(F)(F)F)c4)cnc3c2)cn1 [Example 89, 1-{3-[7-(5-Methoxy-pyrazin-2-yl)-imidazo[1,2-a]pyridin-3-yl]-phenyl}-3-(2,2,2-trifluoro-ethyl)-urea]
- IC50 [1]: 0.073 µM
- IC50 [2, 4]: 0.097 µM

Compound: COc1cncc(-c2ccn3c(-c4cccc(NC(=O)NCC(F)(F)F)c4)cnc3c2)n1 [Example 90, 1-{3-[7-(6-Methoxy-pyrazin-2-yl)-imidazo[1,2-a]pyridin-3-yl]-phenyl}-3-(2,2,2-trifluoro-ethyl)-urea formate]
- IC50 [1]: 0.092 µM
- IC50 [2, 5]: 0.76 µM

Compound: Cc1ccc(-c2ccn3c(-c4cccc(NC(=O)NCC(F)(F)F)c4)cnc3c2)nc1 [Example 91, 1-{3-[7-(5-Methyl-pyridin-2-yl)-imidazo[1,2-a]pyridin-3-yl]-phenyl}-3-(2,2,2-trifluoro-ethyl)-urea formate]
- IC50 [1]: 0.0079 µM
- IC50 [2, 5]: 0.1 µM

Compound: O=C(NCC(F)(F)F)Nc1cccc(-c2cnc3cc(-c4ccc(CO)cn4)ccn23)c1 [Example 92, 1-{3-[7-(5-Hydroxymethyl-pyridin-2-yl)-imidazo[1,2-a]pyridin-3-yl]-phenyl}-3-(2,2,2-trifluoro-ethyl)-urea formate]
- IC50 [1]: 0.11 µM
- IC50 [2, 5]: 0.53 µM

Compound: Cc1cnc(-c2ccn3c(-c4cccc(NC(=O)NCC(F)(F)F)c4)cnc3c2)cn1 [Example 93, 1-{3-[7-(5-Methyl-pyrazin-2-yl)-imidazo[1,2-a]pyridin-3-yl]-phenyl}-3-(2,2,2-trifluoro-ethyl)-urea]
- IC50 [1]: 0.065 µM
- IC50 [2, 4]: 0.043 µM

Compound: O=C1CN(c2ncc(-c3ccn4c(-c5cccc(NC(=O)NCC(F)(F)F)c5)cnc4c3)cn2)CCN1 [Example 94, 1-(3-{7-[2-(3-Oxo-piperazin-1-yl)-pyrimidin-5-yl]-imidazo[1,2-a]pyridin-3-yl}-phenyl)-3-(2,2,2-trifluoro-ethyl)-urea hydrochloride]
- IC50 [1]: 0.95 µM
- IC50 [2, 5]: 5.8 µM

Compound: O=C1CN(c2ccc(-c3ccn4c(-c5cccc(NC(=O)NCC(F)(F)F)c5)cnc4c3)nn2)CCN1 [Example 95, 1-(3-{7-[6-(3-Oxo-piperazin-1-yl)-pyridazin-3-yl]-imidazo[1,2-a]pyridin-3-yl}-phenyl)-3-(2,2,2-trifluoro-ethyl)-urea bis-hydrochloride]
- IC50 [1]: 3.4 µM
- inhibition at 10 µM [2, 3]: 0%

Compound: O=C(NCC(F)(F)F)Nc1cccc(-c2cnc3cc(-c4ccc(F)cn4)ccn23)c1 [Example 96, 1-{3-[7-(5-Fluoro-pyridin-2-yl)-imidazo[1,2-a]pyridin-3-yl]-phenyl}-3-(2,2,2-trifluoro-ethyl)-urea bis-hydrochloride]
- IC50 [1]: 0.0063 µM
- IC50 [2, 5]: 1.7 µM

Compound: Cc1ccnc(-c2ccn3c(-c4cccc(NC(=O)NCC(F)(F)F)c4)cnc3c2)c1 [Example 97, 1-{3-[7-(4-Methyl-pyridin-2-yl)-imidazo[1,2-a]pyridin-3-yl]-phenyl}-3-(2,2,2-trifluoro-ethyl)-urea bis-hydrochloride]
- IC50 [1]: 0.0081 µM
- IC50 [2, 5]: 0.44 µM

Compound: Cc1cccc(-c2ccn3c(-c4cccc(NC(=O)NCC(F)(F)F)c4)cnc3c2)n1 [Example 98, 1-{3-[7-(6-Methyl-pyridin-2-yl)-imidazo[1,2-a]pyridin-3-yl]-phenyl}-3-(2,2,2-trifluoro-ethyl)-urea bis-hydrochloride]
- IC50 [1]: 0.02 µM
- IC50 [2, 5]: 0.7 µM

Compound: CCOc1cccc(-c2ccn3c(-c4cccc(NC(=O)NCC(F)(F)F)c4)cnc3c2)n1 [Example 99, 1-{3-[7-(6-Ethoxy-pyridin-2-yl)-imidazo[1,2-a]pyridin-3-yl]-phenyl}-3-(2,2,2-trifluoro-ethyl)-urea bis-hydrochloride]
- IC50 [1]: 0.063 µM
- IC50 [2, 5]: 0.32 µM

Compound: Cc1cncc(-c2ccn3c(-c4cccc(NC(=O)NCC(F)(F)F)c4)cnc3c2)n1 [Example 100, 1-{3-[7-(6-Methyl-pyrazin-2-yl)-imidazo[1,2-a]pyridin-3-yl]-phenyl}-3-(2,2,2-trifluoro-ethyl)-urea]
- IC50 [1]: 0.09 µM
- IC50 [2, 4]: 0.97 µM

Compound: COc1cccc(-c2ccn3c(-c4cccc(NC(=O)NCC(F)(F)F)c4)cnc3c2)n1 [Example 101, 1-{3-[7-(6-Methoxy-pyridin-2-yl)-imidazo[1,2-a]pyridin-3-yl]-phenyl}-3-(2,2,2-trifluoro-ethyl)-urea]
- IC50 [1]: 0.055 µM
- IC50 [2, 4]: 0.16 µM

Compound: Nc1nc(-c2ccn3c(-c4cccc(NC(=O)NCC(F)(F)F)c4)cnc3c2)ncc1F [Example 102, 1-{3-[7-(4-Amino-5-fluoro-pyrimidin-2-yl)-imidazo[1,2-a]pyridin-3-yl]-phenyl}-3-(2,2,2-trifluoro-ethyl)-urea bis-hydrochloride]
- IC50 [1]: 0.0939 µM
- IC50 [2, 5]: 2.3 µM

Compound: Nc1ccnc(-c2ccn3c(-c4cccc(NC(=O)NCC(F)(F)F)c4)cnc3c2)c1 [Example 108, 1-{3-[7-(4-Amino-pyridin-2-yl)-imidazo[1,2-a]pyridin-3-yl]-phenyl}-3-(2,2,2-trifluoro-ethyl)-urea diformate]
- IC50 [1]: 1.2 µM
- inhibition at 10 µM [2, 3]: 46%

Compound: Nc1ccnc(-c2ccn3c(-c4cccc(NC(=O)NCC(F)(F)F)c4)cnc3c2)n1 [Example 110, 1-{3-[7-(4-Amino-pyrimidin-2-yl)-imidazo[1,2-a]pyridin-3-yl]-phenyl}-3-(2,2,2-trifluoro-ethyl)-urea]
- IC50 [1]: 0.0917 µM
- inhibition at 10 µM [2, 3]: 43%

Compound: O=C(NCC(F)(F)F)Nc1cccc(-c2cnc3cc(-c4ccc(CCO)cc4)ccn23)c1 [Example 111, 1-(3-{7-[4-(2-Hydroxy-ethyl)-phenyl]-imidazo[1,2-a]pyridin-yl}-phenyl)-3-(2,2,2-trifluoro-ethyl)-urea formate]
- IC50 [1]: 0.016 µM
- IC50 [2, 5]: 0.18 µM

Compound: CN(C)c1ccc(-c2ccn3c(-c4cccc(NC(=O)NCC(F)(F)F)c4)cnc3c2)nn1 [Example 113, 1-{3-[7-(6-Dimethylamino-pyridazin-3-yl)-imidazo[1,2-a]pyridin-3-yl]-phenyl}-3-(2,2,2-trifluoro-ethyl)-urea formate]
- IC50 [1]: 0.016 µM
- IC50 [2, 5]: 1.4 µM

Compound: O=C(NCC(F)(F)F)Nc1cccc(-c2cnc3cc(-c4ncccn4)ccn23)c1 [Example 114, 1-{3-[7-(Pyrimidin-2-yl)-imidazo[1,2-a]pyridin-3-yl]-phenyl}-3-(2,2,2-trifluoro-ethyl)-urea hydrochloride]
- IC50 [1]: 0.047 µM
- IC50 [2, 5]: 0.65 µM
